In PubChem BioAssay (NCI):
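Exposure lasted 48 hours, with cells grown in 96-well plates and compounds tested at five concentrations. Abbreviation: GI50, concentration required for 50% inhibition of growth. TGI denotes the concentration required for complete inhibition of growth.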

Key:
Assay in all cases: growth of human tumour cells (NCI), 48 h
786-0 renal = test system: 786-0 renal
A498 renal = test system: A498 renal
A549 NSCLC = test system: A549 NSCLC
ACHN renal = test system: ACHN renal
BT-549 breast = test system: BT-549 breast
CAKI-1 renal = test system: CAKI-1 renal
CCRF-CEM leukemia = test system: CCRF-CEM leukemia
COLO 205 colon = test system: COLO 205 colon
DU-145 prostate = test system: DU-145 prostate
EKVX NSCLC = test system: EKVX NSCLC
HCC-2998 colon = test system: HCC-2998 colon
HCT-116 colon = test system: HCT-116 colon
HCT-15 colon = test system: HCT-15 colon
HOP-62 NSCLC = test system: HOP-62 NSCLC
HOP-92 NSCLC = test system: HOP-92 NSCLC
HS 578T breast = test system: HS 578T breast
HT29 colon = test system: HT29 colon
IGROV1 ovarian = test system: IGROV1 ovarian
K-562 leukemia = test system: K-562 leukemia
KM12 colon = test system: KM12 colon
LOX IMVI melanoma = test system: LOX IMVI melanoma
M14 melanoma = test system: M14 melanoma
MALME-3M melanoma = test system: MALME-3M melanoma
MCF7 breast = test system: MCF7 breast
MDA-MB-231 breast = test system: MDA-MB-231 breast
MDA-MB-435 = test system: MDA-MB-435
MOLT-4 leukemia = test system: MOLT-4 leukemia
NCI-H226 lung = test system: NCI-H226 lung
NCI-H23 lung = test system: NCI-H23 lung
NCI-H460 lung = test system: NCI-H460 lung
NCI-H522 lung = test system: NCI-H522 lung
NCI/ADR-RES ovarian = test system: NCI/ADR-RES ovarian
OVCAR-3 ovarian = test system: OVCAR-3 ovarian
OVCAR-4 ovarian = test system: OVCAR-4 ovarian
OVCAR-5 ovarian = test system: OVCAR-5 ovarian
OVCAR-8 ovarian = test system: OVCAR-8 ovarian
PC-3 prostate = test system: PC-3 prostate
RPMI-8226 leukemia = test system: RPMI-8226 leukemia
RXF 393 renal = test system: RXF 393 renal
SF-268 CNS = test system: SF-268 CNS
SF-295 CNS = test system: SF-295 CNS
SF-539 CNS = test system: SF-539 CNS
SK-MEL-2 melanoma = test system: SK-MEL-2 melanoma
SK-MEL-28 melanoma = test system: SK-MEL-28 melanoma
SK-MEL-5 melanoma = test system: SK-MEL-5 melanoma
SK-OV-3 ovarian = test system: SK-OV-3 ovarian
SN12C renal = test system: SN12C renal
SNB-19 CNS = test system: SNB-19 CNS
SNB-75 CNS = test system: SNB-75 CNS
SR leukemia = test system: SR leukemia
SW-620 colon = test system: SW-620 colon
T-47D breast = test system: T-47D breast
TK-10 renal = test system: TK-10 renal
U251 CNS = test system: U251 CNS
UACC-257 melanoma = test system: UACC-257 melanoma
UACC-62 melanoma = test system: UACC-62 melanoma
UO-31 renal = test system: UO-31 renal

Which results are given for C=C1C(=O)O[C@H]2[C@H]1CC/C(Cn1cc(Cn3ccc4cc(Cl)ccc43)nn1)=C\CC[C@@]1(C)O[C@@H]21?
GI50 (786-0 renal): 1810 nM; TGI (786-0 renal): 3570 nM; GI50 (A498 renal): 3390 nM; TGI (A498 renal): 11700 nM; GI50 (A549 NSCLC): 10200 nM; TGI (A549 NSCLC): 24800 nM; GI50 (ACHN renal): 1240 nM; TGI (ACHN renal): 2500 nM; GI50 (BT-549 breast): 1610 nM; TGI (BT-549 breast): 3300 nM; GI50 (CAKI-1 renal): 1240 nM; TGI (CAKI-1 renal): 2500 nM; GI50 (CCRF-CEM leukemia): 338 nM; TGI (CCRF-CEM leukemia): 1180 nM; GI50 (COLO 205 colon): 1690 nM; TGI (COLO 205 colon): 3500 nM; GI50 (DU-145 prostate): 1550 nM; TGI (DU-145 prostate): 2890 nM; GI50 (EKVX NSCLC): 1730 nM; TGI (EKVX NSCLC): 3780 nM; GI50 (HCC-2998 colon): 1980 nM; TGI (HCC-2998 colon): 3920 nM; GI50 (HCT-116 colon): 1500 nM; TGI (HCT-116 colon): 3120 nM; GI50 (HCT-15 colon): 1140 nM; TGI (HCT-15 colon): 2660 nM; GI50 (HOP-62 NSCLC): 4900 nM; TGI (HOP-62 NSCLC): 20100 nM; GI50 (HOP-92 NSCLC): 489 nM; TGI (HOP-92 NSCLC): 1740 nM; GI50 (HS 578T breast): 2500 nM; TGI (HS 578T breast): 6680 nM; GI50 (HT29 colon): 1830 nM; TGI (HT29 colon): 4460 nM; GI50 (IGROV1 ovarian): 1420 nM; TGI (IGROV1 ovarian): 2900 nM; GI50 (K-562 leukemia): 649 nM; TGI (K-562 leukemia): 3100 nM; GI50 (KM12 colon): 2010 nM; TGI (KM12 colon): 4240 nM; GI50 (LOX IMVI melanoma): 1310 nM; TGI (LOX IMVI melanoma): 2880 nM; GI50 (M14 melanoma): 1650 nM; TGI (M14 melanoma): 3630 nM; GI50 (MALME-3M melanoma): 1580 nM; TGI (MALME-3M melanoma): 3130 nM; GI50 (MCF7 breast): 1250 nM; TGI (MCF7 breast): 3020 nM; GI50 (MDA-MB-231 breast): 1360 nM; TGI (MDA-MB-231 breast): 2820 nM; GI50 (MDA-MB-435): 1560 nM; TGI (MDA-MB-435): 2980 nM; GI50 (MOLT-4 leukemia): 599 nM; TGI (MOLT-4 leukemia): 3160 nM; GI50 (NCI-H226 lung): 1590 nM; TGI (NCI-H226 lung): 3030 nM; GI50 (NCI-H23 lung): 1990 nM; TGI (NCI-H23 lung): 4460 nM; GI50 (NCI-H460 lung): 3270 nM; TGI (NCI-H460 lung): 10300 nM; GI50 (NCI-H522 lung): 1260 nM; TGI (NCI-H522 lung): 2870 nM; GI50 (NCI/ADR-RES ovarian): 2540 nM; TGI (NCI/ADR-RES ovarian): 9090 nM; GI50 (OVCAR-3 ovarian): 1480 nM; TGI (OVCAR-3 ovarian): 2830 nM; GI50 (OVCAR-4 ovarian): 1530 nM; TGI (OVCAR-4 ovarian): 3020 nM; GI50 (OVCAR-5 ovarian): 1650 nM; TGI (OVCAR-5 ovarian): 3540 nM; GI50 (OVCAR-8 ovarian): 1660 nM; TGI (OVCAR-8 ovarian): 3570 nM; GI50 (PC-3 prostate): 1300 nM; TGI (PC-3 prostate): 2870 nM; GI50 (RPMI-8226 leukemia): 796 nM; TGI (RPMI-8226 leukemia): 3030 nM; GI50 (RXF 393 renal): 1170 nM; TGI (RXF 393 renal): 2460 nM; GI50 (SF-268 CNS): 1650 nM; TGI (SF-268 CNS): 3130 nM; GI50 (SF-295 CNS): 3980 nM; TGI (SF-295 CNS): 17000 nM; GI50 (SF-539 CNS): 1570 nM; TGI (SF-539 CNS): 2970 nM; GI50 (SK-MEL-2 melanoma): 1610 nM; TGI (SK-MEL-2 melanoma): 3720 nM; GI50 (SK-MEL-28 melanoma): 1730 nM; TGI (SK-MEL-28 melanoma): 3270 nM; GI50 (SK-MEL-5 melanoma): 1730 nM; TGI (SK-MEL-5 melanoma): 3320 nM; GI50 (SK-OV-3 ovarian): 13900 nM; TGI (SK-OV-3 ovarian): 26900 nM; GI50 (SN12C renal): 1500 nM; TGI (SN12C renal): 3200 nM; GI50 (SNB-19 CNS): 1970 nM; TGI (SNB-19 CNS): 4490 nM; GI50 (SNB-75 CNS): 1270 nM; TGI (SNB-75 CNS): 4520 nM; GI50 (SR leukemia): 279 nM; TGI (SR leukemia): 1250 nM; GI50 (SW-620 colon): 1130 nM; TGI (SW-620 colon): 2780 nM; GI50 (T-47D breast): 1720 nM; TGI (T-47D breast): 4320 nM; GI50 (TK-10 renal): 1670 nM; TGI (TK-10 renal): 3110 nM; GI50 (U251 CNS): 1690 nM; TGI (U251 CNS): 3350 nM; GI50 (UACC-257 melanoma): 1700 nM; TGI (UACC-257 melanoma): 3610 nM; GI50 (UACC-62 melanoma): 1410 nM; TGI (UACC-62 melanoma): 2780 nM; GI50 (UO-31 renal): 1090 nM; TGI (UO-31 renal): 2290 nM
